Series [1] deals with A549 cells. The series can be described thus: Micro RNA expression pattern by oligo microarray (Agilent Human miRNA array v16.0, 1347 human micro RNAs). The format is cell-based. The following applies: A549, treated at IC20 for 48 hours; for number of up-regulated micro RNAs out of 1347 / up-regulated micro RNA, share of 1347 micro RNAs: signal ratio to control higher than 1.5; for down-regulated micro RNA, share of 1347 micro RNAs / number of down-regulated micro RNAs out of 1347: signal ratio to control lower than 0.66.

Series [2] concerns hsa-miR-28-5p (MIMAT0000085). Briefly: Micro RNA microarray, change of hsa-miR-28-5p expression. The format is cell-based, human. As to conditions: for Change (Fold) hsa-miR-28-5p: A549, treated at IC20 for 48 hours, microarray, versus control.
The subject of series [3] is A549 cells. The series can be described thus: in vitro. The format is cell-based, human. The method, then:
(§1) A549 cells (Korean Cell Line Bank), the human lung cancer tissue derived cell line, were cultured in 100 mm dish containing RPMI (Gibro-BRL, USA) supplemented with 10% FBS until the confluency reached 80%. […] The concentration of vehicle was up to 0.1% in every experiment.
(§2) MTT assay was performed with A549 cell line according to the method of Mossman, et al (J. Immunol. Methods, 65, 55-63, 1983).
(§3) 48 hours later, 5 mg/ml of MTT (3-4,5-dimethylthiazol-2,5-diphenyltetra zolium bromide) was added thereto, followed by culture at 37° C. for 3 hours. Then, the medium was discarded and the formed formazan crystal was dissolved in 500 μl of DMSO, which was aliquoted in 96-well plate. OD540 was measured.

Series [4] concerns hsa-miR-590-5p (MIMAT0003258). Briefly: Micro RNA microarray, change of hsa-miR-590-5p expression. The format is cell-based, human. The following applies: for Change (Fold) hsa-miR-590-5p: A549, treated at IC20 for 48 hours, microarray, versus control.
The nature of a further series: in vitro. The following applies: human. The format is cell-based, human. The method, then:
as §1, §2, §3

Read-outs that look alike come from different tables or passages of the source.

The values that follow come from patent US8716192B2, “Micro RNAs for identification of exposure to lower aliphatic saturated aldehydes and the method of identification using thereof” (Korea Institute of Science and Technology, priority 2012, dated 2014).

For the compound `CCCC=O` [butylaldehyde], in the series with A549 cells [1], the “number of up-regulated micro RNAs out of 1347” value stood at 14; the “up-regulated micro RNA, share of 1347 micro RNAs” value (from here on “up-regulated micro RNA, share”) is recorded as 1.04%; the “down-regulated micro RNA, share of 1347 micro RNAs” value (“down-regulated micro RNA, share” below) is recorded as 0.82%; the “number of down-regulated micro RNAs out of 1347” value amounted to 11. In series [2], the “Change (Fold) hsa-miR-28-5p” value was 0.962 Fold. Besides, the IC20 (usually the concentration at which the effect reaches the 20% level) with A549 cells [3] worked out at 4600 µM. Further, in series [4], the “Change (Fold) hsa-miR-590-5p” value is 0.563 Fold. For the same compound, in series [4] (result in words), the “expression level of hsa-miR-590-5p compared to the normal control group” value is “down-regulated”.
On to `CCCCCCC=O` [heptanal], for which, in the series with A549 cells [1], the “number of up-regulated micro RNAs out of 1347” value is 0; the “up-regulated micro RNA, share” value came to 0.00%; the “down-regulated micro RNA, share” value is recorded as 0.30%; the “number of down-regulated micro RNAs out of 1347” value worked out at 4. In addition, the “Change (Fold) hsa-miR-28-5p” value in series [2] came to 0.922 Fold. Also, in series [2] (result in words), the “expression level of hsa-miR-28-5p compared to the normal control group” value was “down-regulated”. Also, the “Change (Fold) hsa-miR-590-5p” value in series [4] is on record as 0.512 Fold. For the same compound, the “expression level of hsa-miR-590-5p compared to the normal control group” value in series [4] (result in words) is given as “down-regulated”.
Take `CCCCCC=O` [hexanal]: in the series with A549 cells [1], the “number of up-regulated micro RNAs out of 1347” value was 5; the “up-regulated micro RNA, share” value is listed as 0.37%; the “down-regulated micro RNA, share” value was 0.07%; the “number of down-regulated micro RNAs out of 1347” value is 1. In addition, the “expression level of hsa-miR-28-5p compared to the normal control group” value in series [2] is “up-regulated”. Also, the “expression level of hsa-miR-590-5p compared to the normal control group” value in series [4] is “up-regulated”.
`CCCCCCCCC=O` [nonanal]: in the series on A549 cells [1], the “number of up-regulated micro RNAs out of 1347” value is recorded as 6; the “up-regulated micro RNA, share” value was determined as 0.45%; the “down-regulated micro RNA, share” value came to 0.00%; the “number of down-regulated micro RNAs out of 1347” value is 0. For the same compound, in series [2], the “Change (Fold) hsa-miR-28-5p” value came out at 1.569 Fold. Besides, the “expression level of hsa-miR-28-5p compared to the normal control group” value in series [2] (result in words) is recorded as “up-regulated”. In “in vitro”, it took 440 µM to reach the 20% level (IC20 at 48 h). For the same compound, the “Change (Fold) hsa-miR-590-5p” value in series [4] came out at 0.966 Fold. In addition, in series [4] (result in words), the “expression level of hsa-miR-590-5p compared to the normal control group” value is “down-regulated”.
In the case of `CCCCCCCC=O` [octanal], in the series on A549 cells [1], the “number of up-regulated micro RNAs out of 1347” value is “one”; the “up-regulated micro RNA, share” value was found to be 0.07%; the “down-regulated micro RNA, share” value came to 1.04%; the “number of down-regulated micro RNAs out of 1347” value came to 14. The “Change (Fold) hsa-miR-28-5p” value in series [2] was found to be 0.755 Fold. In series [2] (result in words), the “expression level of hsa-miR-28-5p compared to the normal control group” value is recorded as “down-regulated”. Moreover, the “Change (Fold) hsa-miR-590-5p” value in series [4] is given as 0.508 Fold. Also, the “expression level of hsa-miR-590-5p compared to the normal control group” value in series [4] (result in words) is reported as “down-regulated”.
As to `CCC=O` [propionaldehyde], in the series with A549 cells [1], the “number of up-regulated micro RNAs out of 1347” value is reported as 13; the “up-regulated micro RNA, share” value was determined as 0.97%; the “down-regulated micro RNA, share” value turned out to be 0.15%; the “number of down-regulated micro RNAs out of 1347” value is 2. Also, the “expression level of hsa-miR-28-5p compared to the normal control group” value in series [2] (result in words) is “up-regulated”.
Regarding `CCCCC=O` [valeraldehyde], in the series on A549 cells [1], the “number of up-regulated micro RNAs out of 1347” value stood at 8; the “up-regulated micro RNA, share” value amounted to 0.59%; the “down-regulated micro RNA, share” value came to 0.15%; the “number of down-regulated micro RNAs out of 1347” value was 5. For the same compound, the “Change (Fold) hsa-miR-28-5p” value in series [2] is recorded as 1.660 Fold. Further, in series [2] (result in words), the “expression level of hsa-miR-28-5p compared to the normal control group” value is “up-regulated”. Further, the “Change (Fold) hsa-miR-590-5p” value in series [4] worked out at 1.253 Fold. Further, the “expression level of hsa-miR-590-5p compared to the normal control group” value in series [4] (result in words) is reported as “up-regulated”.
